The values that follow come from patent US7741334B2, “Low dose therapy for treating viral infections” (priority 2004, dated 2010).

As usually defined, the fraction unbound is the share of the substance not bound to proteins or other matrix. High values mean much free substance, low ones little free substance. The Cmax is the maximum level reached in the sampled fluid or tissue.

Data set [1] in a line: Population PK analysis of plasma and urine data, study ACH443-011, 1×20 mg tablet PO. Particulars: human, in vivo. The protocol: The PK model created included an individual compartmental PK analysis using ADAPT-II® and Population PK analysis using an iterative two-stage population modeling technique (IT2S®) of plasma and urine data from a study of healthy subjects, n=29, 1×20 mg tablet PO (ACH443-011). FIG. 1 illustrates the PK model of Elvucitabine according to a three compartment model characterized by two absorption peaks, each associated with a lag time and a first order absorption rate constant.
FIG. 2 illustrates an example of individual fit using a Population PK analysis (IT2S).

Data set [2] is described as follows: Therapeutic window from PK versus PD relationship. Particulars: human. From the text:
Pharmacokinetics and pharmacodynamics modeling was used to explore potential dosing regimens for Elvucitabine. A pharmacokinetics (PK) model was developed to describe both the plasma concentration-time data and excreted urinary amounts from previously completed studies with Elvucitabine. With the PK model in hand and pharmacodynamics (PD) results of previously completed studies, the relationship of PK and PD from an efficacy and toxicity standpoint is obtained. From the results of the PK and PD studies, a therapeutic window of Elvucitabine is defined and simulated dosing regimens ranging from 5 mg BID to 100 mg Q1 week were explored using ADAPT II® Pharmacokinetic and Pharmacodynamic Systems Analysis Software. From the simulated dosing regimen results, ten dosing regimens were identified allowing maintenance therapy with Elvucitabine at levels effective against both HIV and HBV while avoiding bone toxicity.
From the foregoing results, a therapeutic window of Elvucitabine was identified. It has been determined that a 5 mg QD dose is effective for HBV and, therefore, a plasma AUCss/24 of 300 μg·h/L was identified as the efficacy threshold.

Take `Nc1nc(=O)n([C@H]2C=C[C@@H](CO)O2)cc1F` [Elvucitabine, 4-amino-5-fluoro-1-((2R,5S)-5-(hydroxymethyl)-2,5-dihydrofuran-2-yl)pyrimidin-2(1H)-one]: in data set [1], the “apparent volume of distribution (VSS)” value was determined as 1600 L and the fraction unbound stood at 0.396. For the same molecule, in data set [2], the maximum concentration (Cmax) is more than 40 ng/mL and the “central compartment (plasma) Cmin at onset of toxicity” value is not below 23 ng/mL.
